ChEMBL document CHEMBL5678818, “Discovery of potent SOS1 inhibitors that block RAS activation via disruption of the RAS-SOS1 interaction” (Proc Natl Acad Sci U S A, 2019)

What was measured:
[1] = biological target: T1, Casein kinase I isoform alpha-like (Homo sapiens) (UniProt Q8N752); assay: Inhibition of CSNK1A1L (unknown origin) assessed as residual activity at 1000 nM by KINOMEscan analysis relative to control
T1 sequence (whole entry): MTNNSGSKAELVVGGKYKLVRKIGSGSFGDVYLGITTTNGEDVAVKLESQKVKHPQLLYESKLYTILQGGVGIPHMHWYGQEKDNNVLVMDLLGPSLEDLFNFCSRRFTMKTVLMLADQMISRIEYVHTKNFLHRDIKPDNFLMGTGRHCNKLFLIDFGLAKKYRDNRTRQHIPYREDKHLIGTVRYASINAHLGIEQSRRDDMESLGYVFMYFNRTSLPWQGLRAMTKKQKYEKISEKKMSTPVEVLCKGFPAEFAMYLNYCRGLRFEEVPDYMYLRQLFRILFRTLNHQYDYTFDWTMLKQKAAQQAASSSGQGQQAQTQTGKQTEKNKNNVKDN

[2] = biological target: T2, Ephrin type-A receptor 1 (Homo sapiens) (UniProt P21709); assay: Inhibition of EPHA1 (unknown origin) assessed as residual activity at 1000 nM by KINOMEscan analysis relative to control
T2 sequence (whole entry): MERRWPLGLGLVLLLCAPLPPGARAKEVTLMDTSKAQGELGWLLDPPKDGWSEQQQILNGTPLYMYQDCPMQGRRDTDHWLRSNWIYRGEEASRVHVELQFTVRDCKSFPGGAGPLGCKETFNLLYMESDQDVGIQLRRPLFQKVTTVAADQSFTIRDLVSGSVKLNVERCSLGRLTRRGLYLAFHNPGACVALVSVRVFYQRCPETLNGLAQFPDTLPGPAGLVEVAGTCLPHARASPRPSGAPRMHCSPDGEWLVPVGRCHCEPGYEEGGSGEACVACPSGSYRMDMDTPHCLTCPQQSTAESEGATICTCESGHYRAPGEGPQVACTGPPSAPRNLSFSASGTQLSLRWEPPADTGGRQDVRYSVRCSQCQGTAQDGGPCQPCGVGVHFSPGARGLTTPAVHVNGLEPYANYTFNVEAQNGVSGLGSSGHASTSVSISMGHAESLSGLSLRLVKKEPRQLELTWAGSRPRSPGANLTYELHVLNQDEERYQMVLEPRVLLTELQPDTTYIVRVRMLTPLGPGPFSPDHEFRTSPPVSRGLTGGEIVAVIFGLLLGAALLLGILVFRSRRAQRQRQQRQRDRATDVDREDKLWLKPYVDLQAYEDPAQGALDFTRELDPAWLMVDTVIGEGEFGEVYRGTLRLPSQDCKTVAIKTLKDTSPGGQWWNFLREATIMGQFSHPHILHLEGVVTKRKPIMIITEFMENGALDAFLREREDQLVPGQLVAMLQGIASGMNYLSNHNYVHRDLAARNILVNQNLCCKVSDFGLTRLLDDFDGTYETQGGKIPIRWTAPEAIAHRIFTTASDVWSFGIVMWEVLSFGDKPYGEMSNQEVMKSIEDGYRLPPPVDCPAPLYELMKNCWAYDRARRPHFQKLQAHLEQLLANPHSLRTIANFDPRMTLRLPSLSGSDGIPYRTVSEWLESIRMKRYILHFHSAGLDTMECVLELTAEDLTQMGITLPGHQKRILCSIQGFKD

[3] = biological target: Tyrosine-protein kinase Fes/Fps (Homo sapiens) (UniProt P07332); assay: Inhibition of FES (unknown origin) assessed as residual activity at 1000 nM by KINOMEscan analysis relative to control
[4] = tested on: Receptor-type tyrosine-protein kinase FLT3 (Homo sapiens), P36888 [UNDEFINED MUTATION]; assay: Inhibition of FLT3 ITD mutant (unknown origin) assessed as residual activity at 1000 nM by KINOMEscan analysis relative to control
[5] = biological target: Insulin receptor-related protein (Homo sapiens) (UniProt P14616); assay: Inhibition of INSRR (unknown origin) assessed as residual activity at 1000 nM by KINOMEscan analysis relative to control
[6] = tested on: Mast/stem cell growth factor receptor Kit (Homo sapiens), P10721 [V559D]; assay: Inhibition of KIT V559D mutant (unknown origin) assessed as residual activity at 1000 nM by KINOMEscan analysis relative to control
[7] = biological target: Serine/threonine-protein kinase Nek4 (Homo sapiens) (UniProt P51957); assay: Inhibition of NEK4 (unknown origin) assessed as residual activity at 1000 nM by KINOMEscan analysis relative to control
[8] = biological target: Phosphatidylinositol 4-phosphate 3-kinase C2 domain-containing subunit beta (Homo sapiens) (UniProt O00750); assay: Inhibition of PIK3C2B (unknown origin) assessed as residual activity at 1000 nM by KINOMEscan analysis relative to control
[9] = biological target: Serine/threonine-protein kinase PLK2 (Homo sapiens) (UniProt Q9NYY3); assay: Inhibition of PLK2 (unknown origin) assessed as residual activity at 1000 nM by KINOMEscan analysis relative to control
[10] = biological target: Serine/threonine-protein kinase tousled-like 2 (Homo sapiens) (UniProt Q86UE8); assay: Inhibition of TLK2 (unknown origin) assessed as residual activity at 1000 nM by KINOMEscan analysis relative to control
[11] = biological target: Serine/threonine-protein kinase 32C (Homo sapiens) (UniProt Q86UX6); assay: Inhibition of YANK3 (unknown origin) assessed as residual activity at 1000 nM by KINOMEscan analysis relative to control
Chain of Serine/threonine-protein kinase 32C (Homo sapiens) (Q86UX6 whole entry): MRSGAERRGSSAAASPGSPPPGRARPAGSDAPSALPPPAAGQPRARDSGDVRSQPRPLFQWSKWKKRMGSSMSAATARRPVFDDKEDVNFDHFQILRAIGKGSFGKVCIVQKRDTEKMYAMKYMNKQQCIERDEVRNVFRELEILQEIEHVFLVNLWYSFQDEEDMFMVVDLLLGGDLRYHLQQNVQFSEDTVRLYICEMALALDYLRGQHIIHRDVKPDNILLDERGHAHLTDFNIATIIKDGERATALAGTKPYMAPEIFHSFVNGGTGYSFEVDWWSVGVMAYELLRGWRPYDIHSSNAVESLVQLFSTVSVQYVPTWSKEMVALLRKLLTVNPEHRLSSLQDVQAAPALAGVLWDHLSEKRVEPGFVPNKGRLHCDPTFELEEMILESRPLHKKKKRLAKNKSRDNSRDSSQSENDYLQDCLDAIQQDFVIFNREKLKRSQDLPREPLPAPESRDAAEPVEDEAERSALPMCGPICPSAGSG

Chain of Serine/threonine-protein kinase Nek4 (Homo sapiens) (P51957 whole entry, looked up, the tested form may be a part): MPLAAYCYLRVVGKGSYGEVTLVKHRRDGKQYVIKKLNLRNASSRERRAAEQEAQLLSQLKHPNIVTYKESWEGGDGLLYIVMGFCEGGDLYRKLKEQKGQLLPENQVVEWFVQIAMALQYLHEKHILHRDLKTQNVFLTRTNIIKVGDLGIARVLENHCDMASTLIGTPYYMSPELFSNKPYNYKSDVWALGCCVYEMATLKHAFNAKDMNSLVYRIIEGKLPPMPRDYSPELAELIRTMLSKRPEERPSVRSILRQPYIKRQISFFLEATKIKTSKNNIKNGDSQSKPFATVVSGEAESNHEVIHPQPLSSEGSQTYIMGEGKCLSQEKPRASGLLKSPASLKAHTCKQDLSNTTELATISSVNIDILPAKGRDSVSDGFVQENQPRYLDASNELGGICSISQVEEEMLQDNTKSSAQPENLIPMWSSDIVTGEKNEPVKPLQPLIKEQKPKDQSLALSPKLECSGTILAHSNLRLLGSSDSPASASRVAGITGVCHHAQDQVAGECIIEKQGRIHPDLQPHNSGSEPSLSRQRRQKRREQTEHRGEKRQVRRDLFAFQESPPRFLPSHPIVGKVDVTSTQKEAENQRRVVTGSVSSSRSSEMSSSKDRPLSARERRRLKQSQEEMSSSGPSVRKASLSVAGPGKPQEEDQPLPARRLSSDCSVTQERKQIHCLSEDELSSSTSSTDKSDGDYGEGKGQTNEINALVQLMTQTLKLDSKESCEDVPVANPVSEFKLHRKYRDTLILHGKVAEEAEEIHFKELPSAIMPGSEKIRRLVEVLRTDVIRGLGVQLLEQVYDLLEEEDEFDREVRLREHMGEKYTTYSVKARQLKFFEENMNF
Chain of Insulin receptor-related protein (Homo sapiens) (P14616 27-742 limits assumed): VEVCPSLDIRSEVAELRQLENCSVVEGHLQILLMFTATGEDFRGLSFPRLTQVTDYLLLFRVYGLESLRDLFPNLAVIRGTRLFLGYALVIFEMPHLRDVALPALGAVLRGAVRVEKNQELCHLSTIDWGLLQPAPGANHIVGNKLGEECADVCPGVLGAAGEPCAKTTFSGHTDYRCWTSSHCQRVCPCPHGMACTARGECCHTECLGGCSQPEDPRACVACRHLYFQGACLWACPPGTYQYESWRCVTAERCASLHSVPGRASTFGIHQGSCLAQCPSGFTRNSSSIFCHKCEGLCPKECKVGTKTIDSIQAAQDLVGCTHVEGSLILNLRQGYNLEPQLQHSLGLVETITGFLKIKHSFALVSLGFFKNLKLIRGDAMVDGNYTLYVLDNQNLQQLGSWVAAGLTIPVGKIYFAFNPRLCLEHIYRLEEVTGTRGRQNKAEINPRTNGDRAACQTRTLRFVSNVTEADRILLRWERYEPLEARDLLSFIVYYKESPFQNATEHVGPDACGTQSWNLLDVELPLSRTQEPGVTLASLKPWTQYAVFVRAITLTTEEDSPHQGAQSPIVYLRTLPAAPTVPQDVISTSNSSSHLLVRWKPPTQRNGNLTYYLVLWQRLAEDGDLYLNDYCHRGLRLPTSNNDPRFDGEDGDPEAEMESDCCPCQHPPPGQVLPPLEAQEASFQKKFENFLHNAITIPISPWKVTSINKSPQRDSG
Chain of Insulin receptor-related protein (Homo sapiens) (P14616 747-1297 limits assumed): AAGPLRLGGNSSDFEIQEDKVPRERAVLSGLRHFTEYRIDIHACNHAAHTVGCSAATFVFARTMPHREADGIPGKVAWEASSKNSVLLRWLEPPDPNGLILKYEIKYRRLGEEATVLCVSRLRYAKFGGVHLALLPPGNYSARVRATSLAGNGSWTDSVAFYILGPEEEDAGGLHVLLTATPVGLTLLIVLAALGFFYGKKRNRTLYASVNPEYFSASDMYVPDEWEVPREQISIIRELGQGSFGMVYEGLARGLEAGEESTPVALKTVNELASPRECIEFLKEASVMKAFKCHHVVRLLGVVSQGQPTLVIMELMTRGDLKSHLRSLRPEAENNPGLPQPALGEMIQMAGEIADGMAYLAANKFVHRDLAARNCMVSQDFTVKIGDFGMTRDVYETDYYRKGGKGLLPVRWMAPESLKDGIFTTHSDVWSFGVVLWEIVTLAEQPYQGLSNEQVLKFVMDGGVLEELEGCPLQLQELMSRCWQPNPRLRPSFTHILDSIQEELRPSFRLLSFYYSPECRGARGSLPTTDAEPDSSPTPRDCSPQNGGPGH
Chain of Receptor-type tyrosine-protein kinase FLT3 (Homo sapiens), P36888 [UNDEFINED MUTATION] (P36888 whole entry, looked up, stated change not applied): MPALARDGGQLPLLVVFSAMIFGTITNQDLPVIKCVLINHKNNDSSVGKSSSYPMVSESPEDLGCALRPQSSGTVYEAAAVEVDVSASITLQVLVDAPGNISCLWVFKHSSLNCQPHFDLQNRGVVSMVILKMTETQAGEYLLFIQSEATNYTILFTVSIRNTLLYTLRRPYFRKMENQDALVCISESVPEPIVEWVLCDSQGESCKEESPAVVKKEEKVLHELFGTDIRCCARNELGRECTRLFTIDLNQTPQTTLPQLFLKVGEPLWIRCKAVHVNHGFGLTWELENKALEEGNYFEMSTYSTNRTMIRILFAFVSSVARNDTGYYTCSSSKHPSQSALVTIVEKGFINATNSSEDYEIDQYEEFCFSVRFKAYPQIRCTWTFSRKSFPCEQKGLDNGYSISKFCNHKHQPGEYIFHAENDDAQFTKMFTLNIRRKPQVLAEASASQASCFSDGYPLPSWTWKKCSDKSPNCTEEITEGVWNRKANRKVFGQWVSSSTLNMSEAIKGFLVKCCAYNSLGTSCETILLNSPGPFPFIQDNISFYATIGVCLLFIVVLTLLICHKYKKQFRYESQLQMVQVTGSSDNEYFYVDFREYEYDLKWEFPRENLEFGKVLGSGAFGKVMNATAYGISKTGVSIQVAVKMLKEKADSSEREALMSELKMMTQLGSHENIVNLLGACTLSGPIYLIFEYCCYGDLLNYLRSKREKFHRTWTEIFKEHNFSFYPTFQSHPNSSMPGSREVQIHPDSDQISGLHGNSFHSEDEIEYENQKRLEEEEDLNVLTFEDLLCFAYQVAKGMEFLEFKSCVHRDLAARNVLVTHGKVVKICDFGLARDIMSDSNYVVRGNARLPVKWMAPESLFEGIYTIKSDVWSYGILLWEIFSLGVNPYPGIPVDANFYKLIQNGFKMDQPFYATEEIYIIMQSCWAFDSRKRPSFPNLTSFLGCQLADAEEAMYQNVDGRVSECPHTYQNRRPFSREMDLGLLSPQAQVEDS
Chain of Serine/threonine-protein kinase PLK2 (Homo sapiens) (Q9NYY3 whole entry, looked up): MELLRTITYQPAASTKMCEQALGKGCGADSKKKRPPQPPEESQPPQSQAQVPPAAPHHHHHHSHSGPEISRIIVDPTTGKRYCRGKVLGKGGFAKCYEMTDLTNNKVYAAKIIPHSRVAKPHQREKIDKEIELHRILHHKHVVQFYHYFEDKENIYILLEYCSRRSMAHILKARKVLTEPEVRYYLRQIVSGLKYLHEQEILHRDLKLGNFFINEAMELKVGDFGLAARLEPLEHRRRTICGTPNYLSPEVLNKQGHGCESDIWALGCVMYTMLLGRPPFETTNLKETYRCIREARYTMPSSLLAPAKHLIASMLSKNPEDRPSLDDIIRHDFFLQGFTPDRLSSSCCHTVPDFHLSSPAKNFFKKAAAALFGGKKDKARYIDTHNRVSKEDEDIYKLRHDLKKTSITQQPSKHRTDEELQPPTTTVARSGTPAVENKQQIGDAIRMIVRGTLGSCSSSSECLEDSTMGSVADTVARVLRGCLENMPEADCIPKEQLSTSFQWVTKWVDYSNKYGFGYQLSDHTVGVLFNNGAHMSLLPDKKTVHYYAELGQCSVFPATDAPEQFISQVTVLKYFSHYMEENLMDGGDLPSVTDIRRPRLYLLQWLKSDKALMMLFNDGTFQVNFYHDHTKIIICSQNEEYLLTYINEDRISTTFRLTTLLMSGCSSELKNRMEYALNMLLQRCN
Chain of Serine/threonine-protein kinase tousled-like 2 (Homo sapiens) (Q86UE8 whole entry, looked up): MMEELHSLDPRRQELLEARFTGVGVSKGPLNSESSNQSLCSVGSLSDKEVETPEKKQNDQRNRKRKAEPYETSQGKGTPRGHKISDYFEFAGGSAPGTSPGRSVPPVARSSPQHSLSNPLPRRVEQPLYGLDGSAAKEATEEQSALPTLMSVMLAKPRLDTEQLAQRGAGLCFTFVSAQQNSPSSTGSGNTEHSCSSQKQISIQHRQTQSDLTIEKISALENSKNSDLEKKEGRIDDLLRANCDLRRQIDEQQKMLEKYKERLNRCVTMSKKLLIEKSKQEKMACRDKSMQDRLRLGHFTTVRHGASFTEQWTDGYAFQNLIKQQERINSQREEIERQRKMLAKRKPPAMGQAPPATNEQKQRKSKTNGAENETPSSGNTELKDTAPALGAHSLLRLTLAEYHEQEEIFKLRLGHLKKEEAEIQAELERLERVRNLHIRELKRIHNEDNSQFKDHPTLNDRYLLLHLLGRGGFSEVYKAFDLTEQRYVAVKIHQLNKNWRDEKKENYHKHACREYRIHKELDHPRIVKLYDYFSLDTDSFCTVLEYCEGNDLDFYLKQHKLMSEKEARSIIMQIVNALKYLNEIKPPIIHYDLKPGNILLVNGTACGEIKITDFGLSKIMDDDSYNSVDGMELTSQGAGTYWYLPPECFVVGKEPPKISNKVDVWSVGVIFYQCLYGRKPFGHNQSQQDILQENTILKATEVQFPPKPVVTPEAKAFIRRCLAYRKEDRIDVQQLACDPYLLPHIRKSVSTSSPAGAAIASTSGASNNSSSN

Row | Structure (SMILES) | Activity [1] [%] | Activity [2] [%] | Activity [3] [%] | Activity [4] [%] | Activity [5] [%] | Activity [6] [%] | Activity [7] [%] | Activity [8] [%] | Activity [9] [%] | Activity [10] [%] | Activity [11] [%]
1 | COc1cc2ncnc(N[C@H](C)c3cccc4ccccc34)c2cc1OC | 100 | 100 | 99 | 96 | 93 | 95 | 90 | 89 | 99 | 77 | 100
2 | COc1cc2nc(C)nc(N[C@H](C)c3cccc(-c4cn[nH]c4)c3)c2cc1OC | 65 | 39 | 45 | 58 | 97 | 81 | 81 | 90 | 99 | 83 | 98
